Assay results reported in ChEMBL document CHEMBL5321210, “N-adamantyl-anthranil amide derivatives: New selective ligands for the cannabinoid receptor subtype 2 (CB2R)” (Eur J Med Chem, 2023).

How the values were obtained:
Cannabinoid receptor 1 [1] = molecular target: T1, Cannabinoid receptor 1 (Homo sapiens, UniProt P21554); test: Displacement of [3H]-CP55940 from human CB1 receptor expressed in HEK293 cell membrane at 1 uM incubated for 60 mins by radioligand competition binding assay relative to control; type: cell membranes
Cannabinoid receptor 2 [2] = molecular target: T2, Cannabinoid receptor 2 (Homo sapiens, UniProt P34972); test: Displacement of [3H]-CP55940 from human CB2 receptor expressed in HEK293 cell membrane assessed as inhibition constant incubated for 90 mins by radioligand competition binding assay; type: cell membranes
Cannabinoid receptor 2 [3] = molecular target: T2, Cannabinoid receptor 2; test: Agonist activity at human CB2 receptor expressed in CHO-K1 cells assessed as inhibition of NKH-477 induced cAMP production by measuring maximal efficacy incubated for 30 mins by luminescence based analysis relative to control; type: functional, cell-based; settings: filed as agonist
Cannabinoid receptor 2 [4] = molecular target: T2, Cannabinoid receptor 2; test: Agonist activity at human CB2 receptor expressed in CHO-K1 cells assessed as inhibition of NKH-477 induced cAMP production incubated for 30 mins by luminescence based analysis; type: functional, cell-based
Cannabinoid receptor 2 [5] = molecular target: T2, Cannabinoid receptor 2; test: Displacement of [3H]-CP55940 from human CB2 receptor expressed in HEK293 cell membrane at 1 uM incubated for 90 mins by radioligand competition binding assay relative to control; type: cell membranes
Cannabinoid receptor 1 [6] = molecular target: T1, Cannabinoid receptor 1; test: Displacement of [3H]-CP55940 from human CB1 receptor expressed in HEK293 cell membrane assessed as inhibition constant incubated for 60 mins by radioligand competition binding assay; type: cell membranes

T1 sequence (P21554 whole entry): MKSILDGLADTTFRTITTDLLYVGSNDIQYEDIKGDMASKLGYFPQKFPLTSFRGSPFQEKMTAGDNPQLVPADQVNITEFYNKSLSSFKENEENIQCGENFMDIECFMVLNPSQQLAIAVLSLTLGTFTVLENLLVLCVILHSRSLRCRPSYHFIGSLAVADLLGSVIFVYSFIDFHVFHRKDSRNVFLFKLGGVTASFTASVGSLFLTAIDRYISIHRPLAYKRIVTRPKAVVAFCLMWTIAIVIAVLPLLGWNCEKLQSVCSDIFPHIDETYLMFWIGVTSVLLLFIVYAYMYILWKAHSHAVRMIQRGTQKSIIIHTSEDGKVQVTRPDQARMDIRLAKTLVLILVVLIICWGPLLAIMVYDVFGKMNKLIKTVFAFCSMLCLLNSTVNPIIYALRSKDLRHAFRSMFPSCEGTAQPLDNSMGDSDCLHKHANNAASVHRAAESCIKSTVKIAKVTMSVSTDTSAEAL
T2 sequence (P34972 whole entry): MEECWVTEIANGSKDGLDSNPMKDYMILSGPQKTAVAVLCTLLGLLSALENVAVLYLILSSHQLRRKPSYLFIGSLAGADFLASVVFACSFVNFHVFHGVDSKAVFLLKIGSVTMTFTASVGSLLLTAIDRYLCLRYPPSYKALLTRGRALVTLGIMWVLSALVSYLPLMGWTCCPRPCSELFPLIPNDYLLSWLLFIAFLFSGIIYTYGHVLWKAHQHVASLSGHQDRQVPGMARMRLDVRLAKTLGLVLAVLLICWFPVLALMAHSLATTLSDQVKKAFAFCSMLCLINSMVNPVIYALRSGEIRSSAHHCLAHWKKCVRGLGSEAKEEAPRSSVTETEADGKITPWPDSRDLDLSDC

Row | Compound | Activity (Cannabinoid receptor 1 [1]) [%] | Ki (Cannabinoid receptor 2 [2]) [nM] | Activity (Cannabinoid receptor 2 [5]) [%] | other results
1 | CCCCCCNc1ccccc1C(=O)NC12CC3CC(CC(C3)C1)C2 | 6 | 485 | – | –
2 | Cc1c(C(=O)NC23CC4CC(CC(C4)C2)C3)nn(CCCCCO)c1-c1ccccc1 | – | – | – | Ki (Cannabinoid receptor 2 [2]; hek293): 0.08 nM
3 | CCCCCCCNc1ccc(-c2cccs2)cc1C(=O)NC12CC3CC(CC(C3)C1)C2 | 7 | 160 | – | Emax (Cannabinoid receptor 2 [3]): 75%; EC50 (Cannabinoid receptor 2 [4]): 5600 nM
4 | CCCCCNc1ccc(-c2cccc(OC)c2)cc1C(=O)NC12CC3CC(CC(C3)C1)C2 | 28 | – | 25 | –
5 | CCCCCNc1ccc(-c2ccc(C(=O)OC)cc2)cc1C(=O)NC12CC3CC(CC(C3)C1)C2 | 6 | – | 12 | –
6 | COc1ccc2c(c1)c(CCN1CCOCC1)c(C)n2C(=O)c1cccc(Cl)c1Cl | – | 6.9 | – | –
7 | CCCCCNc1ccc(-c2cccc(C(N)=O)c2)cc1C(=O)NC12CC3CC(CC(C3)C1)C2 | 3 | – | 21 | –
8 | CCCCCNc1ccc(-c2cccnc2)cc1C(=O)NC12CC3CC(CC(C3)C1)C2 | 1 | 330 | – | Emax (Cannabinoid receptor 2 [3]): 98.1%; EC50 (Cannabinoid receptor 2 [4]): 10400 nM
9 | CCCCCNc1ccc(-c2ccc(F)cc2)cc1C(=O)NC12CC3CC(CC(C3)C1)C2 | – | 89.5 | – | Ki (Cannabinoid receptor 1 [6]): 754 nM
10 | CCCCCCNc1ccc(-c2cccs2)cc1C(=O)NC12CC3CC(CC(C3)C1)C2 | 32 | 465 | – | –
11 | CCCCCCCNc1ccccc1C(=O)NC12CC3CC(CC(C3)C1)C2 | 4 | 923 | – | –
12 | CCCCCCCNc1ccc(-c2ccccc2)cc1C(=O)NC12CC3CC(CC(C3)C1)C2 | 22 | 1180 | – | –
13 | CCCCCCCNc1ccc(-c2cccnc2)cc1C(=O)NC12CC3CC(CC(C3)C1)C2 | 16 | – | 31 | –
